Four compounds from patent US12679878B2, “CRF2 receptor agonists and their use in therapy” (SANOFI, priority 2020, dated 2026) can be followed below.

Common to all, as to assay type: cell-based
Experiment [1] has as its target T1, human CRF2α receptor (Homo sapiens, UniProt Q13324).
T1 construct: expressed in transfected cells; host or cells: TeloHEAC
T1 sequence (Q13324 1-411): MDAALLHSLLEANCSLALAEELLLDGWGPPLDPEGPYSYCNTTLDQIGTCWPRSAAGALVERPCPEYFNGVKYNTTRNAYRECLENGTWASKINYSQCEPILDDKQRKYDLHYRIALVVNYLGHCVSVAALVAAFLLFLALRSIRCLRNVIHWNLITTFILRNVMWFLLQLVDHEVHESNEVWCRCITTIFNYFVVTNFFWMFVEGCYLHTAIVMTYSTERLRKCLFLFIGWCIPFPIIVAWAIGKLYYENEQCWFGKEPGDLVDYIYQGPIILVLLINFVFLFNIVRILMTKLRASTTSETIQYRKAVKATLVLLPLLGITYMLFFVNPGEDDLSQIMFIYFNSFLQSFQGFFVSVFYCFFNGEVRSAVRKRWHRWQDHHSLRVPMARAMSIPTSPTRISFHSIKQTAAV
Kind of experiment: cAMP agonism at human CRF2 α receptor in TeloHEAC cells (Example 7). To be noted: cAMP HTRF, TeloHEAC cells stably expressing human CRF2 α. The gist of the method: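 HTRF ratio 665/620 nm, read 1 h after lysis reagents, reports cAMP. Cells: thawed stocks, 2000/well, 30 min RT with compound in HBSS, 20 mM HEPES, 0 or 0.1% HSA, 2 mM IBMX. Activity normalised to UCN2 1000 nM = 100%; EC50 from half-maximal activation.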
For orientation: In TR-FRET formats the signal depends on donor and acceptor labels being close together.

Experiment [2] relates to rat CRF2R α receptor. Kind of experiment: cAMP agonism at rat CRF2R α receptor in A7R5 rat aortic smooth muscle cells (Example 8). Particulars: cAMP HTRF, A7R5 rat aortic smooth muscle cell line, 0% HSA. The procedure, abridged:
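Potency (EC50) is the concentration reaching half-maximal activation, with responses scaled so that 1000 nM urocortin 2 equals 100%. Intracellular cAMP was quantified by homogeneous time-resolved fluorescence at 665/620 nm, 1 h after lysis-buffer reagents. Compound stimulation lasted 30 min at room temperature on 2000 IBMX-treated (2 mM) cells per well in HEPES-buffered HBSS.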

Experiment [3] addresses T2, CRF1R receptor (Homo sapiens, UniProt P34998).
T2 construct: host or cells: CHO-K1 clone 2
T2 sequence (P34998 24-415): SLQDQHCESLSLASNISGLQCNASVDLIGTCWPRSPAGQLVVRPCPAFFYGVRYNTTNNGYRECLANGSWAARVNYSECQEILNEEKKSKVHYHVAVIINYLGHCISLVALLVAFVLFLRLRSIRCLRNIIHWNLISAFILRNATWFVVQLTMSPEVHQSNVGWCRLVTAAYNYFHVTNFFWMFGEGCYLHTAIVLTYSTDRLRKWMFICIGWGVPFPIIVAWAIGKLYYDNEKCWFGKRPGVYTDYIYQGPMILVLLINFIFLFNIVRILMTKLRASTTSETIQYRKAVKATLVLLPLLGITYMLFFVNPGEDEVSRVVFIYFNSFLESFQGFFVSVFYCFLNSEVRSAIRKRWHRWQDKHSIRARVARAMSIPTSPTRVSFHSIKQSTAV
In words: cAMP activity at anti-target CRF1R, CRF1R-overexpression CHO cell line (Example 9). Particulars: for EC50: 0% HSA. The gist of the method:
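Using thawed CRF1R-overexpressing CHO cells at 2000 per well, compound is applied for 30 min at RT in HBSS/HEPES buffer with IBMX. Cellular cAMP content is determined via HTRF, and percent activity is calculated against 1000 nM UCN2 defined as 100%.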

Where [4] appears, read: 0% HSA, read-out: EC50 [nM], 0% HSA.
Setting [5] is: 0.1% HSA, read-out: EC50 [nM], 0.1% HSA.
The mark [6] stands for this setting: CRF1R-overexpression CHO cell line.
Setting [7] is: CRF1R-overexpression CHO cell line, read-out: Emax (%).

Read-outs that look alike come from different tables or passages of the source. Starred links: 1 amine or outer side, 2 acyl side, 3 side chain; linkers in the order of their positions; H or OH if unused. Residues, ends and D or L forms follow the SMILES beside them. Groups on a side chain read outwards from the residue. *: point of attachment. C20 diacid = O=C(O)CCCCCCCCCCCCCCCCCCC(=O)*; C18 diacid = O=C(O)CCCCCCCCCCCCCCCCC(=O)*; γGlu = O=C(O)[C@H](CCC(=O)[*:2])N[*:1]; AEEA = NCCOCCOCC(=O)O

Broadly, the EC50 is the midpoint of the concentration-response curve. In general, Emax refers to the greatest response seen or fitted, relative to the assay's reference.

As for `CC[C@H](C)[C@H](NC(=O)[C@H](CCC(N)=O)NC(=O)[C@H](CCCCNC(=O)COCCOCCNC(=O)COCCOCCNC(=O)CC[C@H](NC(=O)CCCCCCCCCCCCCCCCC(=O)O)C(=O)O)NC(=O)[C@@H](NC(=O)[C@H](CCCCN)NC(=O)[C@@H](NC(=O)[C@@H]1CCCN1C(=O)[C@@H](NC(=O)[C@H](CC(=O)O)NC(=O)[C@H](CC(C)C)NC(=O)[C@H](CO)NC(=O)[C@H](CC(C)C)NC(=O)[C@@H](NC(=O)[C@@H](N)Cc1ccccc1)[C@@H](C)O)C(C)C)[C@@H](C)O)[C@@H](C)CC)C(=O)N[C@@H](CC(C)C)C(=O)N[C@@H](CC(C)C)C(=O)N[C@@H](CCCCN)C(=O)N[C@@H](CCC(N)=O)C(=O)N[C@@H](CCC(N)=O)C(=O)N[C@@H](CCCCN)C(=O)N[C@@H](CCC(N)=O)C(=O)N[C@@H](CCCCN)C(=O)N[C@@H](CCCCN)C(=O)N[C@@H](CCC(=O)O)C(=O)N[C@@H](CCCNC(=N)N)C(=O)N[C@@H](CCC(N)=O)C(=O)N[C@@H](CCC(N)=O)C(=O)N[C@@H](C)C(=O)N[C@@H](CCC(=O)O)C(=O)N[C@H](C(=O)N[C@@H](CC(N)=O)C(=O)N[C@@H](CCCCN)C(=O)N[C@@H](CCC(N)=O)C(=O)N[C@@H](CC(C)C)C(=O)N[C@@H](CC(C)C)C(=O)N[C@@H](CCC(=O)O)C(=O)N[C@@H](CCCNC(=N)N)C(=O)N[C@H](C(N)=O)C(C)C)[C@@H](C)O` [compound 53] (H-FTLSLDVPTKIK([AEEA-AEEA-γGlu-C18 diacid])QILLKQQKQKKERQQAETNKQLLERV-NH2), the EC50 in experiment [1] (setting [4]) is 1.01 nM; in experiment [1] (setting [5]), 55.1 nM; in experiment [2] it was 1.32 nM; in experiment [3] (setting [6]) it was > 1000 nM. Also, in experiment [3] (setting [7]), the Emax was found to be 4.14%.

`CC[C@H](C)[C@H](NC(=O)[C@H](CCC(N)=O)NC(=O)[C@H](CCCCNC(=O)COCCOCCNC(=O)COCCOCCNC(=O)CC[C@H](NC(=O)CCCCCCCCCCCCCCCCC(=O)O)C(=O)O)NC(=O)[C@H](CC(C)C)NC(=O)[C@H](CCCCN)NC(=O)[C@@H](NC(=O)[C@@H]1CCCN1C(=O)[C@@H](NC(=O)[C@H](CC(=O)O)NC(=O)[C@H](CC(C)C)NC(=O)[C@H](CO)NC(=O)[C@H](CC(C)C)NC(=O)[C@@H](NC(=O)[C@@H](N)Cc1ccccc1)[C@@H](C)O)C(C)C)[C@@H](C)CC)C(=O)N[C@@H](CC(C)C)C(=O)N[C@@H](CC(C)C)C(=O)N[C@@H](CCCCN)C(=O)N[C@@H](CCC(N)=O)C(=O)N[C@@H](CCC(N)=O)C(=O)N[C@@H](CCCCN)C(=O)N[C@@H](CCC(N)=O)C(=O)N[C@@H](CCCCN)C(=O)N[C@@H](CCCCN)C(=O)N[C@@H](CCC(=O)O)C(=O)N[C@@H](CCCNC(=N)N)C(=O)N[C@@H](CCC(N)=O)C(=O)N[C@@H](CCC(N)=O)C(=O)N[C@@H](C)C(=O)N[C@@H](CCC(=O)O)C(=O)N[C@H](C(=O)N[C@@H](CC(N)=O)C(=O)N[C@H](C(=O)N[C@@H](CCC(N)=O)C(=O)N[C@@H](CC(C)C)C(=O)N[C@@H](CC(C)C)C(=O)N[C@@H](CCC(=O)O)C(=O)N[C@@H](CCCNC(=N)N)C(=O)N[C@H](C(N)=O)C(C)C)C(C)C)[C@@H](C)O` [compound 54] (H-FTLSLDVPIKLK([AEEA-AEEA-γGlu-C18 diacid])QILLKQQKQKKERQQAETNVQLLERV-NH2): the EC50 in experiment [1] (setting [4]) worked out at 0.57 nM; in experiment [1] (setting [5]), 24.5 nM; in experiment [2], 1.51 nM. This compound had an Emax in experiment [3] (CHO) of 2.72%.

`CC[C@H](C)[C@H](NC(=O)[C@H](CCC(N)=O)NC(=O)[C@H](CCCCNC(=O)COCCOCCNC(=O)COCCOCCNC(=O)CC[C@H](NC(=O)CCCCCCCCCCCCCCCCCCC(=O)O)C(=O)O)NC(=O)[C@H](CC(C)C)NC(=O)[C@H](CCCCN)NC(=O)[C@@H](NC(=O)[C@@H]1CCCN1C(=O)[C@@H](NC(=O)[C@H](CC(=O)O)NC(=O)[C@H](CC(C)C)NC(=O)[C@H](CO)NC(=O)[C@H](CC(C)C)NC(=O)[C@@H](NC(=O)[C@@H](N)Cc1ccccc1)[C@@H](C)O)C(C)C)[C@@H](C)CC)C(=O)N[C@@H](CC(C)C)C(=O)N[C@@H](CC(C)C)C(=O)N[C@@H](CCCCN)C(=O)N[C@@H](CCC(N)=O)C(=O)N[C@@H](CCC(N)=O)C(=O)N[C@@H](CCCCN)C(=O)N[C@@H](CCC(N)=O)C(=O)N[C@@H](CCCCN)C(=O)N[C@@H](CCCCN)C(=O)N[C@@H](CCC(=O)O)C(=O)N[C@@H](CCCNC(=N)N)C(=O)N[C@@H](CCC(N)=O)C(=O)N[C@@H](CCC(N)=O)C(=O)N[C@@H](C)C(=O)N[C@@H](CCC(=O)O)C(=O)N[C@H](C(=O)N[C@@H](CC(N)=O)C(=O)N[C@H](C(=O)N[C@@H](CCC(N)=O)C(=O)N[C@@H](CC(C)C)C(=O)N[C@@H](CC(C)C)C(=O)N[C@@H](CCC(=O)O)C(=O)N[C@@H](CCCNC(=N)N)C(=O)N[C@H](C(N)=O)C(C)C)C(C)C)[C@@H](C)O` [compound 62] (H-FTLSLDVPIKLK([AEEA-AEEA-γGlu-C20 diacid])QILLKQQKQKKERQQAETNVQLLERV-NH2): the EC50 in experiment [1] (setting [4]) is 0.8 nM; in experiment [2] it was 2.9 nM. The Emax in experiment [3] (CHO) amounted to 2.28%.

Regarding `CC[C@H](C)[C@H](NC(=O)[C@H](CCC(N)=O)NC(=O)[C@H](CCCCNC(=O)COCCOCCNC(=O)COCCOCCNC(=O)CC[C@H](NC(=O)CCCCCCCCCCCCCCCCCCC(=O)O)C(=O)O)NC(=O)[C@H](CC(C)C)NC(=O)[C@H](CCCCN)NC(=O)[C@@H](NC(=O)[C@@H]1CCCN1C(=O)[C@@H](NC(=O)[C@H](CC(=O)O)NC(=O)[C@H](CC(C)C)NC(=O)[C@H](CO)NC(=O)[C@H](CC(C)C)NC(=O)[C@@H](NC(=O)[C@@H](N)Cc1ccccc1)[C@@H](C)O)C(C)C)[C@@H](C)CC)C(=O)N[C@@H](CC(C)C)C(=O)N[C@@H](CC(C)C)C(=O)N[C@@H](CCC(=O)O)C(=O)N[C@@H](CCC(N)=O)C(=O)N[C@@H](CCC(N)=O)C(=O)N[C@@H](CCCCN)C(=O)N[C@@H](CCC(N)=O)C(=O)N[C@@H](CCCCN)C(=O)N[C@@H](CCCCN)C(=O)N[C@@H](CCC(=O)O)C(=O)N[C@@H](CCCNC(=N)N)C(=O)N[C@@H](CCC(N)=O)C(=O)N[C@@H](CCC(N)=O)C(=O)N[C@@H](C)C(=O)N[C@@H](CCC(=O)O)C(=O)N[C@H](C(=O)N[C@@H](CC(N)=O)C(=O)N[C@H](C(=O)N[C@@H](CCC(N)=O)C(=O)N[C@@H](CC(C)C)C(=O)N[C@@H](CC(C)C)C(=O)N[C@@H](CCC(=O)O)C(=O)N[C@@H](CCCNC(=N)N)C(=O)N[C@H](C(N)=O)C(C)C)C(C)C)[C@@H](C)O` [compound 63] (H-FTLSLDVPIKLK([AEEA-AEEA-γGlu-C20 diacid])QILLEQQKQKKERQQAETNVQLLERV-NH2), the results for the EC50 in experiment [1] (setting [4]), in experiment [2] and in experiment [3] (setting [6]) were 0.63 nM, 4.73 nM and > 1000 nM, respectively. Moreover, the Emax in experiment [3] (setting [7]) stood at 4.68%.
